Test results from PubChem BioAssay (NCI).
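Method: 48-hour compound exposure of cells in 96-well plates, five concentrations, linear interpolation of endpoints. TGI: total growth inhibition.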

Key:
Assay in all cases: inhibition of tumour cell growth, NCI panel, 48 h
[1] = test system: SF-295 CNS
[2] = test system: HOP-92 NSCLC
[3] = test system: SNB-19 CNS
[4] = test system: COLO 205 colon
[5] = test system: MALME-3M melanoma
[6] = test system: KM12 colon
[7] = test system: HCT-15 colon
[8] = test system: U251 CNS
[9] = test system: CAKI-1 renal
[10] = test system: OVCAR-3 ovarian
[11] = test system: K-562 leukemia
[12] = test system: NCI-H23 lung
[13] = test system: OVCAR-8 ovarian
[14] = test system: HL-60(TB) leukemia
[15] = test system: SR leukemia
[16] = test system: MDA-MB-435
[17] = test system: OVCAR-5 ovarian
[18] = test system: PC-3 prostate
[19] = test system: OVCAR-4 ovarian
[20] = test system: M14 melanoma
[21] = test system: TK-10 renal
[22] = test system: UACC-257 melanoma
[23] = test system: EKVX NSCLC
[24] = test system: BT-549 breast
[25] = test system: HS 578T breast
[26] = test system: SF-539 CNS
[27] = test system: A549 NSCLC
[28] = test system: UACC-62 melanoma
[29] = test system: RPMI-8226 leukemia
[30] = test system: MCF7 breast
[31] = test system: A498 renal
[32] = test system: UO-31 renal
[33] = test system: HT29 colon
[34] = test system: LOX IMVI melanoma
[35] = test system: SNB-75 CNS
[36] = test system: T-47D breast
[37] = test system: MDA-N
[38] = test system: HCC-2998 colon
[39] = test system: NCI/ADR-RES ovarian
[40] = test system: CCRF-CEM leukemia
[41] = test system: HCT-116 colon
[42] = test system: SW-620 colon
[43] = test system: SN12C renal
[44] = test system: DU-145 prostate
[45] = test system: SK-MEL-2 melanoma
[46] = test system: SK-MEL-5 melanoma
[47] = test system: NCI-H522 lung
[48] = test system: SF-268 CNS
[49] = test system: RXF 393 renal
[50] = test system: IGROV1 ovarian
[51] = test system: MDA-MB-231 breast
[52] = test system: HOP-62 NSCLC
[53] = test system: 786-0 renal
[54] = test system: MOLT-4 leukemia
[55] = test system: ACHN renal
[56] = test system: NCI-H460 lung
[57] = test system: SK-MEL-28 melanoma
[58] = test system: SK-OV-3 ovarian
[59] = test system: NCI-H226 lung

Measured: TGI

NC(=O)SCC(=O)Nc1ccc2cccc3c2c1CC3
47.2 µM: [37]
44.8 µM: [48]
34.3 µM: [24]
88.7 µM: [33]
45.6 µM: [43]
4.61 µM: [2]
28.3 µM: [14]
21.6 µM: [34]
47.1 µM: [45]
24.6 µM: [42]
59.9 µM: [12]
33.6 µM: [16]
51.3 µM: [22]
34.6 µM: [26]
63.1 µM: [54]
44.7 µM: [55]
37.5 µM: [28]
69.8 µM: [21]
29.6 µM: [30]
95.9 µM: [36]
75.9 µM: [46]
20.5 µM: [8]
42.8 µM: [53]
52 µM: [17]
36 µM: [41]
56.8 µM: [19]
91.9 µM: [9]
49.2 µM: [29]
32.9 µM: [15]
54.4 µM: [49]
27.4 µM: [51]
not listed: [56] | [57] | [58] | [59]
> 100 µM: all other assays above

CCOC(=O)c1nc2cc(C(F)(F)F)ccc2nc1Nc1cc(OC)c(OC)c(OC)c1
not listed: [19] | [45]
> 100 µM: all other assays above

COc1ccc(C2N(c3ccc(F)c([N+](=O)[O-])c3)C(=O)N3C(c4ccc(OC)cc4)N(c4ccc(F)c([N+](=O)[O-])c4)C(=O)N23)cc1 (configuration not stated)
not listed: [11] | [54] | [58] | [59]
> 100 µM: all other assays above
